Test results reported in patent publication EP0386603A2, “Bisphenethanolamine” (F. HOFFMANN-LA ROCHE AG, priority 1989, dated 1990).

Test: Effect on oxygen consumption in fasted rats (metabolic cages)
Assay type: in vivo, Albinoratten
Details: placebo-corrected; for Sauerstoffverbrauch 1. bis 3. Stunde: mean of hours 1-3 after dosing; for Sauerstoffverbrauch 1. bis 12. Stunde: mean of hours 1-12 after dosing
Experimental: Wirkung auf den Sauerstoffverbrauch
Gruppen von 6 männlichen Albinoratten im Gewicht von 160-180 g wurden nach 24 Stunden Fasten in Stoffwechselkäfige gesetzt. Die Käfige wurden mit konstant 6 Liter Raumluft/Minute, die bei einem Taupunkt von 11°C äquilibriert wurden belüftet. Von der Abluft wurde nach erneuter Aequilibrierung während Perioden von jeweils 14 Minuten Proben gesammelt und der Sauerstoff- und CO₂-Gehalt analysiert. Nach einer Anpassungszeit von 4 Stunden erhielten die Tiere entweder Placebo (5% Gummi arabicum) oder die Testsubstanz, nämlich BAP (suspendiert in 5% Gummi arabicum) per os oder intraperitoneal. Danach wurden 12 Stunden lang die Bestimmungen durchgeführt. In der nachfolgenden Tabelle ist der gemittelte Sauerstoffverbrauch nach Medikation während der ersten 3 Stunden und der gesamten Versuchsdauer (12 Stunden) als Prozentsatz des Sauerstoffverbrauchs der Anpassungsperiode (100%) angegeben, wobei entsprechende Korrekturen für Aenderungen in der Placebo-Gruppe berücksichtigt wurden, Tabelle

## OCCOc1ccc(CCN(C[C@H](O)c2cccc(Cl)c2)C[C@H](O)c2cccc(Cl)c2)cc1 [BAP, 4-[2-[Bis[(R)-β-hydroxy-3-chlorphenäthyl]amino]äthyl]phenoxyäthanol]
0,3 µM/kg i.p.
  Sauerstoffverbrauch 1. bis 3. Stunde: 134 % vom Wert der Vorperiode
  Sauerstoffverbrauch 1. bis 12. Stunde: 108 % vom Wert der Vorperiode
0,3 µM/kg p.os
  Sauerstoffverbrauch 1. bis 3. Stunde: 114 % vom Wert der Vorperiode
  Sauerstoffverbrauch 1. bis 12. Stunde: 105 % vom Wert der Vorperiode
1 µM/kg i.p.
  Sauerstoffverbrauch 1. bis 3. Stunde: 172 % vom Wert der Vorperiode
  Sauerstoffverbrauch 1. bis 12. Stunde: 121 % vom Wert der Vorperiode
1 µM/kg p.os
  Sauerstoffverbrauch 1. bis 3. Stunde: 156 % vom Wert der Vorperiode
  Sauerstoffverbrauch 1. bis 12. Stunde: 122 % vom Wert der Vorperiode
3 µM/kg i.p.
  Sauerstoffverbrauch 1. bis 3. Stunde: 174 % vom Wert der Vorperiode
  Sauerstoffverbrauch 1. bis 12. Stunde: 134 % vom Wert der Vorperiode
3 µM/kg p.os
  Sauerstoffverbrauch 1. bis 3. Stunde: 179 % vom Wert der Vorperiode
  Sauerstoffverbrauch 1. bis 12. Stunde: 137 % vom Wert der Vorperiode
10 µM/kg i.p.
  Sauerstoffverbrauch 1. bis 3. Stunde: 186 % vom Wert der Vorperiode
  Sauerstoffverbrauch 1. bis 12. Stunde: 154 % vom Wert der Vorperiode
10 µM/kg p.os
  Sauerstoffverbrauch 1. bis 3. Stunde: 191 % vom Wert der Vorperiode
  Sauerstoffverbrauch 1. bis 12. Stunde: 157 % vom Wert der Vorperiode
